Results reported in the NIST ThermoML archive (doi:10.1021/je200721d).

Experiment: xn = mol fraction of the nth substance listed
Conditions: Liquid, Vibrating tube method

CCCCCCCC [octane] + CCCCCC
Conditions | mass density [kg/m3]
323.08 K, 13000 kPa, x2 = 0.1654 | 685.79
323.08 K, 14000 kPa, x2 = 0.1654 | 686.73
323.08 K, 15000 kPa, x2 = 0.1654 | 687.65
323.08 K, 16000 kPa, x2 = 0.1654 | 688.56
323.08 K, 17000 kPa, x2 = 0.1654 | 689.44
323.08 K, 18000 kPa, x2 = 0.1654 | 690.32
323.08 K, 19000 kPa, x2 = 0.1654 | 691.15
323.08 K, 20000 kPa, x2 = 0.1654 | 691.98
323.08 K, 21000 kPa, x2 = 0.1654 | 692.79
323.08 K, 22000 kPa, x2 = 0.1654 | 693.57
323.08 K, 23000 kPa, x2 = 0.1654 | 694.36
323.08 K, 24000 kPa, x2 = 0.1654 | 695.11
323.08 K, 25000 kPa, x2 = 0.1654 | 695.85
323.09 K, 1000 kPa, x2 = 0.9308 | 638.41
323.09 K, 2000 kPa, x2 = 0.9308 | 639.57
323.09 K, 3000 kPa, x2 = 0.9308 | 640.76
323.09 K, 4000 kPa, x2 = 0.9308 | 641.92
323.09 K, 5000 kPa, x2 = 0.9308 | 643.1
323.09 K, 6000 kPa, x2 = 0.9308 | 644.29
323.09 K, 7000 kPa, x2 = 0.9308 | 645.46
323.09 K, 8000 kPa, x2 = 0.9308 | 646.63
323.09 K, 9000 kPa, x2 = 0.9308 | 647.79
323.09 K, 10000 kPa, x2 = 0.9308 | 648.93
323.09 K, 11000 kPa, x2 = 0.9308 | 650.05
323.09 K, 12000 kPa, x2 = 0.9308 | 651.17
323.09 K, 13000 kPa, x2 = 0.9308 | 652.26
323.09 K, 14000 kPa, x2 = 0.9308 | 653.35
323.09 K, 15000 kPa, x2 = 0.9308 | 654.41
323.09 K, 16000 kPa, x2 = 0.9308 | 655.45
323.09 K, 17000 kPa, x2 = 0.9308 | 656.47
323.09 K, 18000 kPa, x2 = 0.9308 | 657.47
323.09 K, 19000 kPa, x2 = 0.9308 | 658.44
323.09 K, 20000 kPa, x2 = 0.9308 | 659.39
323.09 K, 21000 kPa, x2 = 0.9308 | 660.32
323.09 K, 22000 kPa, x2 = 0.9308 | 661.2
323.09 K, 23000 kPa, x2 = 0.9308 | 662.07
323.09 K, 24000 kPa, x2 = 0.9308 | 662.91
323.09 K, 25000 kPa, x2 = 0.9308 | 663.72
323.1 K, 1000 kPa, x2 = 0.7995 | 646.3
323.1 K, 2000 kPa, x2 = 0.7995 | 647.41
323.1 K, 3000 kPa, x2 = 0.7995 | 648.55
323.1 K, 4000 kPa, x2 = 0.7995 | 649.72
323.1 K, 5000 kPa, x2 = 0.7995 | 650.83
323.1 K, 6000 kPa, x2 = 0.7995 | 651.95
323.1 K, 7000 kPa, x2 = 0.7995 | 653.08
323.1 K, 8000 kPa, x2 = 0.7995 | 654.18
323.1 K, 9000 kPa, x2 = 0.7995 | 655.3
